Data on eleven compounds can be found in ChEMBL document CHEMBL3596161, “Progress Toward the Development of Noscapine and Derivatives as Anticancer Agents” (J Med Chem, 2015).

In experiment [1] the test system is HeLa. The experiment can be described thus: Cell cycle arrest in human HeLa cells assessed as accumulation at G1 phase after 24 hrs by FACS analysis (reference value: 45.2%). Format: functional. On the technique in general: A flow cytometer gives signals particle by particle.
Experiment [2] concerns HeLa. The experiment can be described thus: Cell cycle arrest in human HeLa cells assessed as accumulation at S phase after 24 hrs by FACS analysis (reference value: 12.9%). The experiment is classed as functional.
For experiment [3], the system named is HeLa. In words: Cell cycle arrest in human HeLa cells assessed as accumulation at G2/M phase after 24 hrs by FACS analysis (reference value: 16.5%). Format: functional.
The test system of experiment [4] is HeLa. In words: Induction of apoptosis in human HeLa cells after 24 hrs. Format: functional.
Experiment [5] relates to HeLa. In words: Growth inhibition in human HeLa cells assessed as reduction of growth at 50 uM. The note with it: read-out: GI. Format: functional.
The target of experiment [6] is T1, Tubulin (Homo sapiens) (UniProt P68371+Q9H4B7+P0DPH7+P68366+Q13509+Q71U36+P04350+Q3ZCM7+P07437+P68363+Q9BQE3+Q6PEY2+Q13885+Q9BVA1+Q9BUF5). The experiment can be described thus: Inhibition of tubulin polymerization in human HeLa cells assessed as shortening of microtubules at 20 uM. The experiment is classed as cell-based. Further details: scale not given: the % may be the effect or the level left.

For experiment [7], the target named is T1, Tubulin (Homo sapiens). The experiment can be described thus: Inhibition of tubulin polymerization in human HeLa cells assessed as shortening of microtubules at 50 uM. Format: cell-based. Further details: scale not given: the % may be the effect or the level left.
Experiment [8] concerns the target T1, Tubulin (Homo sapiens). The experiment can be described thus: Inhibition of tubulin polymerization in human HeLa cells assessed as microtubules spent time in attenuated state at 50 uM. Format: cell-based. Further details: scale not given: the % may be the effect or the level left.
The target in experiment [9] is T1, Tubulin (Homo sapiens). In words: Inhibition of tubulin polymerization in human HeLa cells assessed as polymeric tubulin level at 1 uM. Format: cell-based. Further details: scale not given: the % may be the effect or the level left.
Experiment [10] concerns the target T1, Tubulin (Homo sapiens). The experiment can be described thus: Inhibition of tubulin polymerization in human HeLa cells assessed as polymeric tubulin level at 10 uM. More on the design: scale not given: the % may be the effect or the level left. Format: cell-based.
Experiment [11] has as its target T1, Tubulin (Homo sapiens). The experiment can be described thus: Inhibition of tubulin polymerization in human HeLa cells assessed as polymeric tubulin level at 100 uM. Further details: scale not given: the % may be the effect or the level left. The experiment is classed as cell-based.
The next experiment has as its system C6. In words: Antitumor activity against rat C6 cells xenografted in mouse assessed as reduction of tumor volume relative to control. Format: functional.
Experiment [12] is described as follows: Antiproliferative activity against human LN229 cells assessed as decrease in colony formation. The experiment is classed as functional, cell-based. As to conditions: LN-229.
The nature of experiment [13]: Antiproliferative activity against human A172 cells assessed as decrease in colony formation. Format: functional, cell-based. The note with it: A 172.
Experiment [14] relates to U-251. The experiment can be described thus: Antiproliferative activity against human U251 cells assessed as decrease in colony formation. Format: functional, cell-based.
The test system of experiment [15] is U-251. The experiment can be described thus: Cell cycle arrest in human U251 cells assessed as accumulation at G1 phase at 30 uM after 24 hrs by flow cytomtery analysis (reference value: 59.62%). Format: functional.
Experiment [16] deals with U-251. In words: Cell cycle arrest in human U251 cells assessed as accumulation at S phase at 30 uM after 24 hrs by flow cytomtery analysis (reference value: 18.08%). Format: functional.
Experiment [17] deals with U-251. In words: Cell cycle arrest in human U251 cells assessed as accumulation at G2/M phase at 30 uM after 24 hrs by flow cytomtery analysis (reference value: 22.31%). Format: functional.
Experiment [18] concerns U-251. In words: Cell cycle arrest in human TMZ-resistant U251 cells assessed as accumulation at G1 phase at 30 uM after 24 hrs by flow cytomtery analysis (reference value: 47.53%). Format: functional.
Experiment [19] relates to U-251. The experiment can be described thus: Cell cycle arrest in human TMZ-resistant U251 cells assessed as accumulation at S phase at 30 uM after 24 hrs by flow cytomtery analysis (reference value: 33.05%). Format: functional.
Experiment [20] relates to U-251. In words: Cell cycle arrest in human TMZ-resistant U251 cells assessed as accumulation at G2/M phase at 30 uM after 24 hrs by flow cytomtery analysis (reference value: 19.42%). The experiment is classed as functional.
A short description of experiment [21]: Cytotoxicity against human H460 cells after 72 hrs. Format: functional, cell-based. As to conditions: NCI-H460, 72 h.
Experiment [22] is described as follows: Antitumor activity against human H460 cells xenografted in athymic nu/nu mouse assessed as tumor regression at 300 mg/kg/day, po administered for 24 days. Format: functional, NCI-H460.
Experiment [23] can be described thus: Antitumor activity against human H460 cells xenografted in athymic nu/nu mouse assessed as tumor regression at 450 mg/kg/day, po administered for 24 days. Format: functional, NCI-H460.
A short description of experiment [24]: Antitumor activity against human H460 cells xenografted in athymic nu/nu mouse assessed as tumor regression at 550 mg/kg/day, po administered for 24 days. Format: functional, NCI-H460.
The subject of experiment [25] is HeLa. The experiment can be described thus: Antimitotic activity against human HeLa cells. The experiment is classed as functional, cell-based.
Experiment [26] deals with HeLa. The experiment can be described thus: Cell cycle arrest in human HeLa cells assessed as accumulation at G2/M phase by measuring 4N DNA content at 6.4 uM by flow cytometry. Format: functional.
A further experiment concerns CCRF-CEM. The experiment can be described thus: Cytotoxicity against human CEM cells. Format: functional, cell-based.
For a further experiment, the system named is A549. In words: Cytotoxicity against human A549 cells. The experiment is classed as functional, cell-based.
Experiment [27] in a line: Cytotoxicity against human NCI-ADR-RES cells expressing ABCB1.
The nature of experiment [28]: Cytotoxicity against human NCI/ADR cells. The note with it: NCI/ADR-RES.
Experiment [29] addresses T1, Tubulin (Homo sapiens). The experiment can be described thus: Inhibition of MAPs-rich tubulin (unknown origin) polymerization at 50 uM. The experiment is classed as protein-complex assay.
Experiment [30] has as its system HeLa. The experiment can be described thus: Cytotoxicity against human HeLa cells. Format: functional, cell-based.
The subject of the next experiment is MCF7. In words: Cytotoxicity against human MCF7 cells. Format: functional, cell-based.
The target of another experiment is Tubulin. In words: Binding affinity to tubulin (unknown origin) by fluorescence assay. The experiment is classed as protein-complex assay, Homo sapiens.
Experiment [31] is described as follows: Antitumor activity against human H460 cells xenografted in athymic nu/nu mouse assessed as tumor regression at 10 mg/kg/day, po administered for 24 days. The experiment is classed as functional, NCI-H460. For orientation: Xenograft models place foreign cells or tissue in a host animal.

One may read the IC50 as the point on the concentration scale where inhibition reaches its midpoint. The term EC50 denotes the concentration needed to bring the measured effect to its halfway point. For `COc1ccc2c(c1OC)C(=O)O[C@@H]2[C@H]1c2c(cc3c(c2OC)OCO3)CCN1C` [NOSCAPINE], the Activity stood at 6.4% in the experiment on HeLa [1]; 11.1% in the experiment with HeLa [2]; 42.9% with HeLa [3]; 50% in the experiment on HeLa [4]; 21.6% at Tubulin (Homo sapiens) [6]; 24.3% on Tubulin (Homo sapiens) [7]. For the same compound, the Activity was 12.7% at Tubulin (Homo sapiens) [8]; 58.3% on Tubulin (Homo sapiens) [9]; 59.2% on Tubulin (Homo sapiens) [10]; 59.2% at Tubulin (Homo sapiens) [11]; 28.92% in the experiment with U-251 [15]; 23.33% in the experiment on U-251 [16]. The Activity in the experiment with U-251 [17] came out at 47.75%; in the experiment on U-251 [18], 21.54%; in the experiment on U-251 [19], 25.33%; in the experiment on U-251 [20] it was 23.13%; in experiment [22], 49%; in experiment [23], 65%. The results for the Activity (in experiment [24]; in the experiment on HeLa [26]) were 86% and 15.2%, respectively. Also, the inhibition of growth at 50 µM with HeLa [5] came to 42.4%. In addition, the “growth inhibition (GI)” value in the experiment on C6 is 60%. The IC50 in experiment [12] turned out to be 70 µM; in [13], 20 µM; in the experiment with U-251 [14], 40 µM; in [21], 34.7 µM; in the experiment with CCRF-CEM, 14.5 µM; in the experiment with A549 it was 72.9 µM. In addition, in the experiment on HeLa [25], the EC50 is 18.4 µM.
Take `COc1cc2c(c(OC)c1OC)-c1ccc(OC)c(=O)cc1[C@@H](NC(C)=O)CC2` [COLCHICINE]: the IC50 came out at 96 nM in experiment [27] and 0.36 nM in [28].
As a reminder, the inhibition is the drop in the measured response relative to a control, in per cent. For `COc1ccc2c(c1OCCCS(=O)(=O)O)C(=O)O[C@@H]2[C@H]1c2c(c(Br)c3c(c2OC)OCO3)CCN1C`, the inhibition against Tubulin (Homo sapiens) [29] is 61%.
As for `COc1ccc2c(c1OC)C(=O)O[C@@H]2[C@H]1c2c(cc3c(c2OC)OCO3)CCN1Cc1cccc(Cl)c1`, the concentration for half-maximal inhibition (IC50) with CCRF-CEM is 11.9 µM; in the experiment on HeLa [30] it was 28.3 µM; in the experiment on A549 it was 61.3 µM; in the experiment on MCF7 it was 45.8 µM.
As a reminder, the Kd is the concentration at which binding is half-saturated. `COc1ccc2c(c1OC)C(=O)O[C@@H]2[C@H]1c2c(c(N)c3c(c2OC)OCO3)CCN1C` yielded a dissociation constant Kd at Tubulin of 14 µM.
Consider `COc1ccc2c(c1OC)C(=O)O[C@@H]2[C@H]1c2c(cc3c(c2OC)OCO3)CCN1Cc1ccc([N+](=O)[O-])cc1`, for which the IC50 in the experiment on CCRF-CEM turned out to be 10 µM; with HeLa [30] it was 23.7 µM; with A549, 49 µM; in the experiment on MCF7, 38.2 µM.
As for `CCOC(=O)CN1CCc2cc3c(c(OC)c2[C@@H]1[C@H]1OC(=O)c2c1ccc(OC)c2OC)OCO3`, the 50% inhibitory concentration (IC50) with CCRF-CEM is 13.6 µM; in the experiment on HeLa [30] it was 32.4 µM; in the experiment on A549 it was 72.3 µM; in the experiment on MCF7, 52.6 µM.
`COc1ccc2c(c1OCCCCS(=O)(=O)O)C(=O)O[C@@H]2[C@H]1c2c(cc3c(c2OC)OCO3)CCN1C` had an inhibition at Tubulin (Homo sapiens) [29] of 74%.
As for `CC(=O)O[C@@]12CO[C@@H]1C[C@H](O)[C@@]1(C)C(=O)[C@H](O)C3=C(C)[C@@H](OC(=O)[C@H](O)[C@@H](NC(=O)OC(C)(C)C)c4ccccc4)C[C@@](O)([C@@H](OC(=O)c4ccccc4)[C@H]21)C3(C)C` [DOCETAXEL ANHYDROUS], the Activity in experiment [31] came to 93%.
For `COC(=O)CN1CCc2cc3c(c(OC)c2[C@@H]1[C@H]1OC(=O)c2c1ccc(OC)c2OC)OCO3`, the IC50 in the experiment with CCRF-CEM came out at 9.5 µM; with HeLa [30], 22.3 µM; in the experiment on A549, 45.4 µM; in the experiment with MCF7, 36 µM.
`COc1ccc2c(c1OC)C(=O)O[C@@H]2[C@H]1c2c(cc3c(c2OC)OCO3)CCN1CC(C)=O`: the IC50 in the experiment on CCRF-CEM was found to be 6.9 µM; in the experiment with HeLa [30] it was 15.8 µM; in the experiment on A549, 28 µM; with MCF7, 25.3 µM.
